From ChEMBL document CHEMBL4033745, “3D-QSAR (CoMFA, CoMSIA), molecular docking and molecular dynamics simulations study of 6-aryl-5-cyano-pyrimidine derivatives to explore the structure requirements of LSD1 inhibitors” (Bioorg Med Chem Lett, 2017) come the findings set out here.

The target of one test is Lysine-specific histone demethylase 1A (Homo sapiens, UniProt O60341). Kind of test: Inhibition of LSD1 (unknown origin). The settings on record: read-out: IC50.
Take `C#CCSc1nc(Nc2ccc(Cl)cc2)c(C#N)c(-c2ccccc2)n1`: the IC50 amounted to 125 µM.
For the compound `C#CCSc1nc(Nc2ccc(F)cc2)c(C#N)c(-c2ccccc2)n1`, the IC50 was 125 µM.
Consider `C#CCSc1nc(Nc2ccc([N+](=O)[O-])cc2)c(C#N)c(-c2ccccc2)n1`, for which the IC50 was determined as 125 µM.
On to `C#CCSc1nc(Cl)c(C#N)c(-c2ccc([N+](=O)[O-])cc2)n1`, for which the IC50 turned out to be 125 µM.
Still for that read-out and setting: for `N#Cc1c(Cl)nc(SCc2cn(Cc3ccccc3Cl)nn2)nc1-c1ccc(Cl)cc1` the value was 125 µM; for `COc1cc(-c2nc(SCc3ccc(F)cc3)nc(NNC(N)=S)c2C#N)cc(OC)c1OC`, 125 µM.

Staying with this test, now noted: read-out: pIC50 (converted).
`C#CCSc1nc(Nc2ccc([N+](=O)[O-])cc2)c(C#N)c(-c2ccccc2)n1`: the IC50 is 123 µM.
